This note sets out measurements from ChEMBL document CHEMBL4152360 (Bioorg Med Chem, 2018).

The target of assay [1] is T1, Casein kinase II subunit alpha (Homo sapiens, UniProt P68400). The experiment in a line: Displacement of ARC-1504/ARC-1513-5O from CK2alpha (unknown origin) (1 to 335 residues) after 15 to 60 mins by luminescence assay.
The target in assay [2] is T1, Casein kinase II subunit alpha. The assay is described as follows: Displacement of ARC-1504/ARC-1513-5O from CK2alpha (unknown origin) (1 to 335 residues) assessed as photoluminescence lifetime using non-deoxygenated solution after 15 to 60 mins by luminescence assay.
Assay [3] has the same target. The experiment in a line: Displacement of ARC-1504/ARC-1513-5O from CK2alpha (unknown origin) (1 to 335 residues) assessed as maximal luminescence intensity of the complex after 15 to 60 mins by luminescence assay relative to ARC-1527.
Assay [4] has the same target. The experiment in a line: Displacement of 5-TAMRA-labeled ARC-1530 from CK2alpha (unknown origin) (1 to 335 residues) after 15 to 60 mins by luminescence assay.
Assay [5] has the same target. The assay is described as follows: Displacement of ARC-1504/ARC-1513-5O from CK2alpha (unknown origin) (1 to 335 residues) assessed as photoluminescence lifetime using deoxygenated solution after 15 to 60 mins by luminescence assay.
Assay [6] has as its target Casein kinase II subunit alpha' (Homo sapiens) (UniProt P19784). The experiment in a line: Displacement of ARC-1504/ARC-1513-5O from CK2alpha' (unknown origin) (1 to 335 residues) assessed as photoluminescence lifetime using non-deoxygenated solution after 15 to 60 mins by luminescence assay.
The species entered for assay [7] is Mus musculus. The assay is described as follows: Binding affinity to CK2 in mouse NIH3T3 cell lysate at 10 nM by luminescence assay.
For assay [8], the species on record is Mus musculus. The assay is described as follows: Binding affinity to CK2 in mouse NIH3T3 cell lysate at 10 nM in presence of CK2 inhibitor CX-4945 by luminescence assay.
In assay [9] the target is T2, Casein kinase II subunit alpha (Mus musculus) (UniProt Q60737).
T2 sequence (whole entry): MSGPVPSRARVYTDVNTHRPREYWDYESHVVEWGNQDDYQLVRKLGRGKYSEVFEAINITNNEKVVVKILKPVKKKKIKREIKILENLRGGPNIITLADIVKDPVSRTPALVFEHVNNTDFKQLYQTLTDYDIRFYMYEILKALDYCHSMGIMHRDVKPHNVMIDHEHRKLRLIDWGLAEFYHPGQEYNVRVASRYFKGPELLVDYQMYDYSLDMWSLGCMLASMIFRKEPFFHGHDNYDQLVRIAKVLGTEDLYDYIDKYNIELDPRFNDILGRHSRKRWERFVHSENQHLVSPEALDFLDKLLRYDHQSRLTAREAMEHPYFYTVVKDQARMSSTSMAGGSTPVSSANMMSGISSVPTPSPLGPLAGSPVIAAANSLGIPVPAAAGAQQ
The assay is described as follows: Binding affinity to RFP-tagged CK2alpha in mouse NIH/3T3 cell lysate at 10 nM by luminescence assay.

Assay [10] deals with T2, Casein kinase II subunit alpha (Mus musculus). The assay is described as follows: Binding affinity to RFP-tagged CK2alpha in mouse NIH/3T3 cell lysate at 10 nM by luminescence assay relative to native CK2.
For assay [11] the target is unchanged. The experiment in a line: Binding affinity to RFP-tagged CK2alpha in mouse NIH/3T3 cell lysate at 10 nM in presence of CK2 inhibitor CX-4945 by luminescence assay.

Structures are written as SMILES. Active and inactive are the calls of the source. The rule behind the calls is not given here.

As to `Nc1ncc(-c2ccc(C(=O)O)cc2)s1`, in assay [1], binding was characterised by a dissociation constant (Kd) of 48 nM.
In the case of `NCCCC[C@@H](NC(=O)[C@@H](CC(=O)O)NC(=O)[C@@H](CC(=O)O)NC(=O)[C@@H](CC(=O)O)NC(=O)[C@@H](CC(=O)O)NC(=O)[C@@H](CC(=O)O)NC(=O)[C@@H](CC(=O)O)NC(=O)CCCCCNC(=O)CCC(=O)Nc1ncc(-c2ccc(C(=O)O)cc2)[se]1)C(=O)O`, in assay [2], the Time stood at 55 microsec. Binding in assay [1] was characterised by a dissociation constant (Kd) of 0.34 nM. For the same compound, in [3], the fold change (FC) was 46. For the same compound, in assay [4], the outcome was Active.
As for `CN(C)c1ccc2c(-c3ccc(C(=O)NCCCC[C@@H](NC(=O)[C@@H](CC(=O)O)NC(=O)[C@@H](CC(=O)O)NC(=O)[C@@H](CC(=O)O)NC(=O)[C@@H](CC(=O)O)NC(=O)[C@@H](CC(=O)O)NC(=O)[C@@H](CC(=O)O)NC(=O)CCCCCNC(=O)CCC(=O)Nc4ncc(-c5ccc(C(=O)O)cc5)s4)C(=O)O)cc3C(=O)[O-])c3ccc(=[N+](C)C)cc-3oc2c1`, the Time in assay [2] was 62 microsec; in [5], 165 microsec; in [6] it was 62 microsec. Besides, the Kd (as a rule, a measure of binding affinity in units of concentration) in [1] is 0.4 nM. In assay [3], the fold change (FC) was 76.
As to `CN(C)c1ccc2c(-c3ccc(C(=O)NCCCC[C@@H](NC(=O)[C@@H](CC(=O)O)NC(=O)[C@@H](CC(=O)O)NC(=O)[C@@H](CC(=O)O)NC(=O)[C@@H](CC(=O)O)NC(=O)[C@@H](CC(=O)O)NC(=O)[C@@H](CC(=O)O)NC(=O)CCCCCNC(=O)CCC(=O)Nc4ncc(-c5ccc(C(=O)O)cc5)[se]4)C(=O)O)cc3C(=O)[O-])c3ccc(=[N+](C)C)cc-3oc2c1`, the result (in the assay listed under Mus musculus [7]; in [9]) was Active. For the same compound, the Time was found to be 39 microsec in assay [2], 58 microsec in assay [5] and 39 microsec in [6]. Besides, the Kd in [1] came out at 0.85 nM. Also, the outcome (in the assay filed under Mus musculus [8]; in [11]) was inactive. Besides, the fold change (FC) in assay [3] came to 5300; in [10], 10.
